The values that follow come from patent publication US8273357B2, “Antigen-carbohydrate conjugates” (Massachusetts Institute of Technology, priority 2004, dated 2012).

The test system of test [1] is CD11c+ dendritic cells / OTII T cells. Put plainly: Antigen presentation assay, purified CD11c+ dendritic cells and purified OTII T cells. It counts as cell-based, mouse. How it is done:
FIGS. 4A, 4B, 4C and 4D are graphs showing that CD11c^+ dendritic cells are the main antigen presenting cells presenting 3-1-targeted antigen. […] 1.5×10^4 Splenic CD11c^+ dendritic cells purified from C57BL/6 mice and 3.0×10^4 purified OTII T cells were incubated with OVA (starting concentration 300 μg mL^−1) or (OVA)-3-1 (starting concentration 25 μg mL^−1) in graded doses for eight-four hours with [^3H]thymidine (1 μCi) added for the last twelve hours. […] Purified CD11c^+ dendritic cells and OTII T cells were incubated with (OVA)-3-1 (25 μg mL^−1)±each potential inhibitor (100 μg mL^−1). T cell proliferation was determined as for FIG. 4A. […] CD11c^+ dendritic cells and OTII T cells were incubated with OVA or (OVA)-3-1±lipopolysaccharide ([…]). Also included are all ‘non-dendritic cells’ (macrophages and B cells) obtained during the purification of the dendritic cells. T cell proliferation was determined as described in FIG. 4A. […] Supernatants from cells described in FIG. 4C were collected at forty-eight and seventy-two hours and measured for IFN-γ by ELISA; the values presented are from the seventy-two hour time point. All measurements here were performed in triplicate.
To confirm that the increased T cell proliferation observed with (OVA)-3-1 was due to the selective uptake of this conjugate by dendritic cells and not B cells or macrophages, purified CD11c^+ dendritic cells were prepared from wild-type C57BL/6 mice and the OVA-specific T cells from transgenic OTII mice (see Materials & Methods). The in vitro antigen presentation assays described above were then repeated. […] By comparison, >50-fold more unmodified OVA was required to obtain similar levels of T cell proliferation. When B cells and macrophages were used as antigen-presenting cells in place of purified dendritic cells, the resulting T cell responses were negligible (FIG. 4C), providing strong confirmation that CD11c^+ dendritic cells are the main antigen-presenting cells mediating uptake and presentation of (OVA)-3-1 to OTII T cells.
(§1) Pooled inguinal lymph nodes were dissociated in 10% Fetal Bovine Serum RPMI (supplemented with 2 mM L-glutamine) and either mechanically dissociated between two glass slides or, to improve the overall cell yield, incubated in the presence of collagenase (Boehringer) and EDTA for 25 minutes at 37° C./5% CO2 to dissociate DC-T cell clusters. For antigen presentation assays with whole splenocytes, isolated spleens were injected with collagenase/EDTA, gently teased apart and incubated as described above. Splenocytes were cultured in 96-well round-bottom plates at a density of 3×10^5 cells/0.2 mL. In antigen presentation assays utilizing purified dendritic cells and T cells, dendritic cells were isolated from the spleens of C57BL/6 mice following collagenase/EDTA treatment by labeling the dendritic cells with commercially available magnetic microbeads linked to an anti-CD11c^+ antibody (Miltenyi Biotec, Bergisch Gladbach, Germany) (according to the Miltenyi Biotec protocol) and separating labeled Dendritic cells from non-dendritic cells by application of a magnetic field. Similarly, purified […] T cells were obtained from spleens of OTII transgenic mice using magnetic beads Dynal (Oslo, Norway). Purified dendritic cells and T cells were seeded onto 96-well plates round-bottom Plates at a 1:2 DC:T cell ratio unless stated otherwise in the Figures.

For test [2], the system named is OTII (CD4+) T cells in unfractionated splenocytes. Briefly: Antigen presentation assay, unfractionated OTII splenocytes, [3H]thymidine T cell proliferation. The format is cell-based, mouse. As to conditions: OTII splenocytes. How it is done: FIG. 2B is a graph showing that oligosaccharide modification of OVA elicits stronger presentation to OTII T cells than unmodified OVA. Unfractionated OTII splenocytes (3×10^5/well) were incubated with graded doses of OVA or oligosaccharide-modified OVA for eighty-four hours with [^3H]thymidine (1 μCi) added for the last 12 hours. Thereafter [^3H]thymidine incorporation levels were measured and plotted. FIG. 2C is a graph showing that observed enhancements in antigen presentation of (OVA)-3-1 to T cells is carbohydrate dependent. Splenocytes were incubated with antigen as in (B)±(BSA)-3-1 (10 μg mL^−1). In cases where (OVA)-3-1 was added to OVA wells to assess the possibility of direct activation of T cells (see text), (OVA)-3-1 was present at 50 ng mL^−1; incubations were performed for seventy-two hours with [^3H]thymidine (1 μCi) added for the last 12 hours. FIG. 2D is a graph showing that the receptor mediated uptake of (OVA)-3-1 has a different binding profile than that observed for DC-SIGN. Unfractionated splenocytes were incubated with OVA or (OVA)-3-1±mBSA or Lewis^x-BSA (each at 100 μg mL^−1). Incubations were performed for seventy-two hours with [^3H]thymidine (1 μCi) added for the last twelve hours. All values reported are the mean of triplicate measurements.
The ability of these conjugates to enhance antigen uptake by dendritic cells was assessed in comparison to unmodified OVA by incubating graded doses of conjugate and OVA with unfractionated splenocytes (containing T cells, B cells, dendritic cells, macrophages) isolated from OTII (CD4^+) transgenic mice. The ability of dendritic cells to present antigenic peptides derived from targeted proteins was measured as a function of T cell proliferation in response to those presented peptides. T cell proliferation is quantified by [^3H]thymidine incorporation during cellular division.
as §1

Another test concerns the target T1, DC-SIGN (Homo sapiens, UniProt Q9NNX6).
T1 sequence (Q9NNX6 1-404): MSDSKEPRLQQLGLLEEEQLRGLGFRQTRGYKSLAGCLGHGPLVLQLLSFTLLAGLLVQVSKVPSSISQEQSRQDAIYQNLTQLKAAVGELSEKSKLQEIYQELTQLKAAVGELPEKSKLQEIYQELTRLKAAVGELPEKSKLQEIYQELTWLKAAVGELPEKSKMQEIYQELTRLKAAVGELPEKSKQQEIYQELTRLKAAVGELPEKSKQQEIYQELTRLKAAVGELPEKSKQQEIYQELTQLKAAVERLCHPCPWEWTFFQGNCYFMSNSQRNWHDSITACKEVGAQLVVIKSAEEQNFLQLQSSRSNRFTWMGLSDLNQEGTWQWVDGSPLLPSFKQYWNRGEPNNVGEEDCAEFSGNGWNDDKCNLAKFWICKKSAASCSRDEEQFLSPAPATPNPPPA
As to conditions: carbohydrate profiling by another group; cited from earlier work.

Test [3] addresses T2, (OVA)-3-1, ovalbumin conjugated to the synthetic high-mannose nonasaccharide 3-1 (fluorophore-labeled in the … (UniProt P01012 2-386, average of three saccharides of structure 3-1 per molecule of OVA, coupled through the Sulfo-SMCC maleimide crosslinker to the thiol-bearing linker of the saccharide (sites not given); fluorophore …).
T2 construct: Neoglycoprotein; also called fluorophore-labeled (OVA)-3-1; carbohydrate-OVA conjugate
T2 sequence (looked up): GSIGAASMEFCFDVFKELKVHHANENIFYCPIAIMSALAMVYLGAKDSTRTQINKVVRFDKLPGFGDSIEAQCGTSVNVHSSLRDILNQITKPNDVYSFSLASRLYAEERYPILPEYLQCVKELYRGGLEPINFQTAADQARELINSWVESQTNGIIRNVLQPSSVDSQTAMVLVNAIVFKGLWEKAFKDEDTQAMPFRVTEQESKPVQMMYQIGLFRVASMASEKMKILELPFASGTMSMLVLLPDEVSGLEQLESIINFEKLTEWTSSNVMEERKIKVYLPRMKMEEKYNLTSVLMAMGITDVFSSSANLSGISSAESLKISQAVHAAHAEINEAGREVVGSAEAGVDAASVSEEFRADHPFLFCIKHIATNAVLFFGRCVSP
Briefly: binding and internalization of fluorophore-labeled (OVA)-3-1 on a cell line stably expressing CIRE. How it is done:
To identify the receptor mediating uptake of the oligosaccharides employed herein, the murine DC-SIGN homolog CIRE[10] was analyzed as a potential receptor; a cell line stably expressing this lectin was used to assay for binding and internalization of fluorophore-labeled 3-1 and fluorophore-labeled (OVA)-3-1. […] The receptor may be identified biochemically, for example, by cross-linking it to bound (OVA)-3-1 and immunoprecipitating the complex with polyclonal sera raised against ovalbumin. Identification of the receptor would enable the determination of its human homolog.

The next test deals with T3, CIRE (Mus musculus, UniProt Q91ZX1).
T3 construct: expressed in transfected cells
T3 sequence (Q91ZX1 1-238): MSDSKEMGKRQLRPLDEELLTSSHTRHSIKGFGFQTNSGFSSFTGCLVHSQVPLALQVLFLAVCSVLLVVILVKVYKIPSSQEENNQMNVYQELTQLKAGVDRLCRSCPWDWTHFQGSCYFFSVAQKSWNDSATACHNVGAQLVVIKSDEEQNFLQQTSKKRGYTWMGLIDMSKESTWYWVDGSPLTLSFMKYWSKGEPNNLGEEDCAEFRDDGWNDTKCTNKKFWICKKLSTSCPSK
Put plainly: Binding and internalization by a cell line stably expressing CIRE. It counts as cell-based, murine. How it is done: To identify the receptor mediating uptake of the oligosaccharides employed herein, the murine DC-SIGN homolog CIRE^10 was analyzed as a potential receptor; a cell line stably expressing this lectin was used to assay for binding and internalization of fluorophore-labeled 3-1 and fluorophore-labeled (OVA)-3-1. […] The receptor may be identified biochemically, for example, by cross-linking it to bound (OVA)-3-1 and immunoprecipitating the complex with polyclonal sera raised against ovalbumin. Identification of the receptor would enable the determination of its human homolog.

[4] abbreviates: (OVA)-3-1 25 μg mL^−1, inhibitor 100 μg mL^−1.

Turning to “invertase: high-mannose-bearing glycoprotein [reference compound]”, in test [1] (setting [4]), the “reduction (inhibition) of (OVA)-3-1 presentation” value came out at 18%. Moreover, the “concentration giving inhibition of (OVA)-3-1 presentation” value in test [1] (similar level of inhibition as mannose) turned out to be 0.5 µM.

As to mannan [reference compound], the “reduction (inhibition) of (OVA)-3-1 presentation” value in test [1] (setting [4]) worked out at 31%.

As for “bovine serum albumin [BSA, reference compound]”, in test [2] ((BSA)-3-1 10 μg mL^−1, 72 h), the “effect of co-incubated protein on (OVA)-3-1 uptake / OTII proliferation” value is on record as “did not affect”.

`CC(=O)N[C@H]1C(O)O[C@H](CO)[C@@H](O[C@@H]2O[C@H](CO)[C@H](O)[C@H](O)[C@H]2O)[C@@H]1O[C@@H]1O[C@@H](C)[C@@H](O)[C@@H](O)[C@@H]1O` (stereo partly drawn) [Lewis^x, reference compound]: the “recognition by DC-SIGN” value on DC-SIGN is reported as “can recognize”. The “inhibitory effect on (OVA)-3-1 presentation by dendritic cells” value in test [1] (setting [4]) is recorded as “marginal effects”.

B1: CIRE, murine DC-SIGN homolog (receptor)
chain: MSDSKEMGKRQLRPLDEELLTSSHTRHSIKGFGFQTNSGFSSFTGCLVHSQVPLALQVLFLAVCSVLLVVILVKVYKIPSSQEENNQMNVYQELTQLKAGVDRLCRSCPWDWTHFQGSCYFFSVAQKSWNDSATACHNVGAQLVVIKSDEEQNFLQQTSKKRGYTWMGLIDMSKESTWYWVDGSPLTLSFMKYWSKGEPNNLGEEDCAEFRDDGWNDTKCTNKKFWICKKLSTSCPSK
Regarding B1, in test [3], the binding result is reported as “no binding”.

B2: (OVA)-3-7: ovalbumin conjugate of monosaccharide galactose 3-7 (conjugate, UniProt P01012 2-386, looked up)
Ovalbumin: GSIGAASMEFCFDVFKELKVHHANENIFYCPIAIMSALAMVYLGAKDSTRTQINKVVRFDKLPGFGDSIEAQCGTSVNVHSSLRDILNQITKPNDVYSFSLASRLYAEERYPILPEYLQCVKELYRGGLEPINFQTAADQARELINSWVESQTNGIIRNVLQPSSVDSQTAMVLVNAIVFKGLWEKAFKDEDTQAMPFRVTEQESKPVQMMYQIGLFRVASMASEKMKILELPFASGTMSMLVLLPDEVSGLEQLESIINFEKLTEWTSSNVMEERKIKVYLPRMKMEEKYNLTSVLMAMGITDVFSSSANLSGISSAESLKISQAVHAAHAEINEAGREVVGSAEAGVDAASVSEEFRADHPFLFCIKHIATNAVLFFGRCVSP
modifications: carbohydrate conjugate
In the case of B2, in test [2] (graded doses), the “enhancement of antigen uptake and presentation to T cells (T cell proliferation) compared to unmodified OVA” value is “did not promote increased presentation at all”.

B3: fluorophore-labeled (OVA)-3-1: fluorophore-labeled (OVA)-3-1 (conjugate)
chain: GSIGAASMEFCFDVFKELKVHHANENIFYCPIAIMSALAMVYLGAKDSTRTQINKVVRFDKLPGFGDSIEAQCGTSVNVHSSLRDILNQITKPNDVYSFSLASRLYAEERYPILPEYLQCVKELYRGGLEPINFQTAADQARELINSWVESQTNGIIRNVLQPSSVDSQTAMVLVNAIVFKGLWEKAFKDEDTQAMPFRVTEQESKPVQMMYQIGLFRVASMASEKMKILELPFASGTMSMLVLLPDEVSGLEQLESIINFEKLTEWTSSNVMEERKIKVYLPRMKMEEKYNLTSVLMAMGITDVFSSSANLSGISSAESLKISQAVHAAHAEINEAGREVVGSAEAGVDAASVSEEFRADHPFLFCIKHIATNAVLFFGRCVSP
Consider B3, for which, in the test with CIRE, the “binding and internalization by CIRE-expressing cell line” value is listed as “did not reveal any interactions”.
